Measured values: patent US11964971B2, “Methods and compositions for modulating splicing” (Skyhawk Therapeutics, Inc., priority 2019, dated 2024)

Experiments:
SMN protein = SMN protein assay (MSD) in SMA patient fibroblasts (GM03813); format: cell-based, human
Method in brief: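 Absolute SMN protein measured by Mesoscale Discovery assay in lysates, calibrated per plate with SMN standards (1–19.5 μg/ml). Cells: GM03813 SMA fibroblasts, 7000/well, 48 h compound exposure at doses of 2.5 μM down to 0.6 nM.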

[1] = test system: MDR1-MDCK cell monolayers; details: dog, MDCK-MDR1, 120 min, 5 μM, pH 7.4
Method: (§1) Experimental Procedure: MDR1-MDCK cell monolayers are grown to confluence on collagen-coated, microporous membranes in 12-well assay plates. The permeability assay buffer is Hanks' balanced salt solution containing 10 mM HEPES and 15 mM glucose at a pH of 7.4. The buffer in the receiver chamber also contained 1% bovine serum albumin. The dosing solution concentration is 5 μM of test article in the assay buffer. Cell monolayers are dosed on the apical side (A-to-B) or basolateral side (B-to-A) and incubated at 37° C. with 5% CO2 in a humidified incubator. Samples are taken from the donor and receiver chambers at 120 minutes. Each determination is performed in duplicate. The flux of lucifer yellow is also measured post-experimentally for each monolayer to ensure no damage was inflicted to the cell monolayers during the flux period. All samples are assayed by LC-MS/MS using electrospray ionization.
(§2) Analytical Method: Liquid Chromatography • Column: Waters ACQUITY UPLC BEH Phenyl 30×2.1 mm, 1.7 μm • M.P. Buffer: 25 mM ammonium formate buffer, pH 3.5 • Aqueous Reservoir (A): 90% water, 10% buffer • Organic Reservoir (B): 90% acetonitrile, 10% buffer • Flow Rate: 0.7 mL/minute • Gradient Program:
(§3) • Total Run Time: 1.00 minute • Autosampler: 2 μL injection volume • Wash1: water/methanol/2-propanol:1/1/1; with 0.2% formic acid • Wash2: 0.1% formic acid in water • Brain Penetration • Potential Classification: A-B Papp≥3.0 and Efflux Ratio<3.0: High • A-B Papp≥3.0 and 10>Efflux Ratio≥3.0: Moderate • A-B Papp≥3.0 and Efflux Ratio≥10: Low • A-B Papp<3.0: Low

MDR1 = test: in vitro; details: dog; for Papp A→B at 120 min, 5 μM: MDCK-MDR1, pH 7.4, MDCK-MDR1: Papp A-B (10^−6, cm/s); for Papp B→A at 120 min, 5 μM: MDCK-MDR1, pH 7.4, MDCK-MDR1: Papp B-A (10^−6, cm/s)
Method: as §1, §2, §3

MDR1 (P-gp) = test: MDCK-MDR1 permeability assay, blood-brain-barrier penetration potential; details: dog, MDCK-MDR1, pH 7.4, MDCK-MDR1 Efflux Ratio
Method: as §1, §2, §3

| Structure (SMILES) | EC50 (SMN protein) | MDCK-MDR1: % Recov A-B (%) [1] | MDCK-MDR1: % Recov B-A (%) [1] | Papp A→B at 120 min, 5 μM (MDR1) | Papp B→A at 120 min, 5 μM (MDR1) | efflux ratio at 120 min, 5 μM (MDR1 (P-gp)) |
| --- | --- | --- | --- | --- | --- | --- |
| COc1cc(-c2ccc(-c3cnc(N(C)[C@@H]4CC5COC[C@H](N5)[C@@H]4F)cn3)c(O)c2)cnn1 (single isomer, unassigned) [Compound 74E1] | 501 to 10000 nM | 88% | 98% | 1.87 ×10⁻⁶ cm/s | 45.5 ×10⁻⁶ cm/s | 24 |
| CN(c1cnc(-c2ccc(-c3cc[nH]c(=O)c3)cc2O)cn1)[C@@H]1CC2CC[C@H](N2)[C@@H]1F (single isomer, unassigned) [Compound 76E1] | 51 to 100 nM | 89% | 75% | 0.29 ×10⁻⁶ cm/s | 30.1 ×10⁻⁶ cm/s | 102 |
| Cc1cc(-c2ccc(-c3cnc(N(C)[C@@H]4CC5CC[C@H](N5)[C@@H]4F)cn3)c(O)c2)cc(=O)[nH]1 (single isomer, unassigned) [Compound 77E1] | 501 to 10000 nM | 64% | 71% | 0.34 ×10⁻⁶ cm/s | 21.9 ×10⁻⁶ cm/s | 64 |
| Cc1cc(-c2ccc(-c3cnc(N(C)[C@H]4C[C@@H]5CCC(N5)[C@H]4F)cn3)c(O)c2)cc(=O)[nH]1 (single isomer, unassigned) [Compound 77E2] | 501 to 10000 nM | 44% | 50% | 0.32 ×10⁻⁶ cm/s | 14.9 ×10⁻⁶ cm/s | 47 |
| CN(c1cnc(-c2ccc(C3=CC(=O)NC3)cc2O)cn1)[C@@H]1CC2CC[C@H](N2)[C@@H]1F (single isomer, unassigned) [Compound 78E1] | 501 to 10000 nM | 81% | 85% | 0.77 ×10⁻⁶ cm/s | 41 ×10⁻⁶ cm/s | 53 |
| CN(c1cnc(-c2ccc(-c3nnco3)cc2O)cn1)[C@@H]1CC2CC[C@H](N2)[C@@H]1F (single isomer, unassigned) [Compound 80E1] | 101 to 500 nM | 63% | 76% | 5.24 ×10⁻⁶ cm/s | 21.5 ×10⁻⁶ cm/s | 4 |
| CN(c1cnc(-c2ccc(-c3nnco3)cc2O)cn1)[C@H]1C[C@@H]2CCC(N2)[C@H]1F (single isomer, unassigned) [Compound 80E2] | 501 to 10000 nM | 73% | 80% | 8.23 ×10⁻⁶ cm/s | 30.8 ×10⁻⁶ cm/s | 4 |
| CN(c1cnc(-c2ccc(-c3cc[nH]c(=O)c3)cc2O)cn1)[C@@H]1CC2COC[C@H](N2)[C@@H]1F (single isomer, unassigned) [Compound 82E1] | 501 to 10000 nM | 83% | 87% | 0.51 ×10⁻⁶ cm/s | 39.2 ×10⁻⁶ cm/s | 77 |
| CN(c1cnc(-c2ccc(-c3cc[nH]c(=O)c3)cc2O)cn1)[C@H]1C[C@@H]2COCC(N2)[C@H]1F (single isomer, unassigned) [Compound 82E2] | 501 to 10000 nM | 45% | 54% | 0.27 ×10⁻⁶ cm/s | 32.2 ×10⁻⁶ cm/s | 120 |
| CN(c1cnc(-c2ccc(C3=CCOC3)cc2O)cn1)[C@@H]1CC2CC[C@H](N2)[C@@H]1F (single isomer, unassigned) [Compound 84E1] | 501 to 10000 nM | 26% | 59% | 3.01 ×10⁻⁶ cm/s | 7.82 ×10⁻⁶ cm/s | 3 |
